# Reference: ChEMBL document CHEMBL3046235, “In vitro biological activities of new heterocyclic chalcone derivatives” (Med Chem Res, 2013)
# Active and inactive are the calls of the source. The rule behind the calls is not given here.
# Tested on: Goatpox virus
# Assay: Antiviral activity against Goatpox virus infected African green monkey Vero cells assessed as reduction of virus titers at MNTC dose incubated for 24 hr measured after 6 days by TCID50 assay
# Format: functional, organism-based
# Conditions: not given
row,SMILES,inhibition
1,CCc1ccc(/C=C/C(=O)c2ccsc2)o1,inactive
2,O=C(/C=C/c1ccc(-c2ccccc2)cc1)c1ccsc1,inactive
3,Cc1cc(C(=O)/C=C/c2ccc[nH]2)c(C)o1,inactive
4,COc1ccc(/C=C/C(=O)c2ccsc2)cc1,inactive
5,COc1ccc(/C=C/C(=O)c2cc(C)oc2C)cc1,inactive
6,O=C(/C=C/c1c[nH]c2ccccc12)c1ccsc1,inactive

# Tested on: Salmonella typhi
# Assay: Antimicrobial activity against Salmonella enterica subsp. enterica serovar Typhi isolated from infected patient assessed as diameter of growth inhibition zone at 40 ug/ml by disk diffusion method
# Format: functional
# Conditions: read-out: DIZ
row,SMILES,zone of inhibition at 40 µg/mL
1,CCc1ccc(/C=C/C(=O)c2ccsc2)o1,26 mm
2,O=C(/C=C/c1ccc(-c2ccccc2)cc1)c1ccsc1,15 mm
3,Cc1cc(C(=O)/C=C/c2ccc[nH]2)c(C)o1,19 mm
4,COc1ccc(/C=C/C(=O)c2ccsc2)cc1,24 mm
5,COc1ccc(/C=C/C(=O)c2cc(C)oc2C)cc1,24 mm
6,O=C(/C=C/c1c[nH]c2ccccc12)c1ccsc1,19 mm

# Tested on: Aspergillus niger
# Assay: Antimicrobial activity against Aspergillus niger assessed as growth inhibition by disk diffusion method
# Format: functional
# Conditions: not given
row,SMILES,MIC
1,CCc1ccc(/C=C/C(=O)c2ccsc2)o1,40 µg/mL
2,O=C(/C=C/c1ccc(-c2ccccc2)cc1)c1ccsc1,40 µg/mL
3,Cc1cc(C(=O)/C=C/c2ccc[nH]2)c(C)o1,40 µg/mL
4,COc1ccc(/C=C/C(=O)c2ccsc2)cc1,30 µg/mL
5,COc1ccc(/C=C/C(=O)c2cc(C)oc2C)cc1,30 µg/mL
6,O=C(/C=C/c1c[nH]c2ccccc12)c1ccsc1,30 µg/mL

# Tested on: Bacillus subtilis
# Assay: Antimicrobial activity against Bacillus subtilis isolated from infected patient assessed as diameter of growth inhibition zone at 40 ug/ml by disk diffusion method
# Format: functional
# Conditions: read-out: DIZ
row,SMILES,zone of inhibition at 40 µg/mL
1,CCc1ccc(/C=C/C(=O)c2ccsc2)o1,25 mm
2,O=C(/C=C/c1ccc(-c2ccccc2)cc1)c1ccsc1,18 mm
3,Cc1cc(C(=O)/C=C/c2ccc[nH]2)c(C)o1,21 mm
4,COc1ccc(/C=C/C(=O)c2ccsc2)cc1,24 mm
5,COc1ccc(/C=C/C(=O)c2cc(C)oc2C)cc1,23 mm
6,O=C(/C=C/c1c[nH]c2ccccc12)c1ccsc1,16 mm

# Tested on: Escherichia coli
# Assay: Antimicrobial activity against Escherichia coli isolated from infected patient assessed as diameter of growth inhibition zone at 40 ug/ml by disk diffusion method
# Format: functional
# Conditions: read-out: DIZ
row,SMILES,zone of inhibition at 40 µg/mL
1,CCc1ccc(/C=C/C(=O)c2ccsc2)o1,25 mm
2,O=C(/C=C/c1ccc(-c2ccccc2)cc1)c1ccsc1,22 mm
3,Cc1cc(C(=O)/C=C/c2ccc[nH]2)c(C)o1,18 mm
4,COc1ccc(/C=C/C(=O)c2ccsc2)cc1,26 mm
5,COc1ccc(/C=C/C(=O)c2cc(C)oc2C)cc1,21 mm
6,O=C(/C=C/c1c[nH]c2ccccc12)c1ccsc1,20 mm

# Tested on: Camelpox virus
# Assay: Antiviral activity against Camelpox virus infected African green monkey Vero cells assessed as inhibition of viral replication at MNTC dose incubated for 24 hr measured after 3 days
# Format: functional
# Conditions: not given
row,SMILES,inhibition (INH)
1,CCc1ccc(/C=C/C(=O)c2ccsc2)o1,0%
2,O=C(/C=C/c1ccc(-c2ccccc2)cc1)c1ccsc1,0%
3,Cc1cc(C(=O)/C=C/c2ccc[nH]2)c(C)o1,0%
4,COc1ccc(/C=C/C(=O)c2ccsc2)cc1,0%
5,COc1ccc(/C=C/C(=O)c2cc(C)oc2C)cc1,0%
6,O=C(/C=C/c1c[nH]c2ccccc12)c1ccsc1,0%

# Tested on: Camelpox virus
# Assay: Antiviral activity against Camelpox virus infected African green monkey Vero cells assessed as reduction of virus titers at MNTC dose incubated for 24 hr measured after 3 days by TCID50 assay
# Format: functional, organism-based
# Conditions: not given
row,SMILES,inhibition
1,CCc1ccc(/C=C/C(=O)c2ccsc2)o1,inactive
2,O=C(/C=C/c1ccc(-c2ccccc2)cc1)c1ccsc1,inactive
3,Cc1cc(C(=O)/C=C/c2ccc[nH]2)c(C)o1,inactive
4,COc1ccc(/C=C/C(=O)c2ccsc2)cc1,inactive
5,COc1ccc(/C=C/C(=O)c2cc(C)oc2C)cc1,inactive
6,O=C(/C=C/c1c[nH]c2ccccc12)c1ccsc1,inactive

# Tested on: Aspergillus niger
# Assay: Antimicrobial activity against Aspergillus niger assessed as diameter of growth inhibition zone at 40 ug/ml by disk diffusion method
# Format: functional
# Conditions: read-out: DIZ
row,SMILES,zone of inhibition at 40 µg/mL
1,CCc1ccc(/C=C/C(=O)c2ccsc2)o1,23 mm
2,O=C(/C=C/c1ccc(-c2ccccc2)cc1)c1ccsc1,24 mm
3,Cc1cc(C(=O)/C=C/c2ccc[nH]2)c(C)o1,21 mm
4,COc1ccc(/C=C/C(=O)c2ccsc2)cc1,23 mm
5,COc1ccc(/C=C/C(=O)c2cc(C)oc2C)cc1,18 mm
6,O=C(/C=C/c1c[nH]c2ccccc12)c1ccsc1,24 mm

# Tested on: Buffalopox virus
# Assay: Antiviral activity against Buffalopox virus virus infected African green monkey Vero cells assessed as reduction of virus titers at MNTC dose incubated for 24 hr measured after 4 days by TCID50 assay
# Format: functional, organism-based
# Conditions: not given
row,SMILES,inhibition
1,CCc1ccc(/C=C/C(=O)c2ccsc2)o1,inactive
2,O=C(/C=C/c1ccc(-c2ccccc2)cc1)c1ccsc1,inactive
3,Cc1cc(C(=O)/C=C/c2ccc[nH]2)c(C)o1,inactive
4,COc1ccc(/C=C/C(=O)c2ccsc2)cc1,inactive
5,COc1ccc(/C=C/C(=O)c2cc(C)oc2C)cc1,inactive
6,O=C(/C=C/c1c[nH]c2ccccc12)c1ccsc1,inactive

# Tested on: HepG2
# Assay: Growth inhibition of Homo sapiens (human) HepG2 cells at 25 to 100 ug/ml after 48 hr by MTT assay
# Format: functional, cell-based
# Conditions: not given
row,SMILES,growth inhibition (GI)
1,CCc1ccc(/C=C/C(=O)c2ccsc2)o1,Active
2,O=C(/C=C/c1ccc(-c2ccccc2)cc1)c1ccsc1,Active
3,COc1ccc(/C=C/C(=O)c2ccsc2)cc1,Active

# Tested on: HepG2
# Assay: Cytotoxicity against Homo sapiens (human) HepG2 cells assessed as inhibition of cell viability by trypan blue exclusion method
# Format: functional
# Conditions: read-out: LC50 (the source's name)
row,SMILES,CC50
1,CCc1ccc(/C=C/C(=O)c2ccsc2)o1,8 µg/mL
2,O=C(/C=C/c1ccc(-c2ccccc2)cc1)c1ccsc1,13 µg/mL
3,Cc1cc(C(=O)/C=C/c2ccc[nH]2)c(C)o1,59 µg/mL
4,COc1ccc(/C=C/C(=O)c2ccsc2)cc1,12 µg/mL
5,COc1ccc(/C=C/C(=O)c2cc(C)oc2C)cc1,63 µg/mL
6,O=C(/C=C/c1c[nH]c2ccccc12)c1ccsc1,36 µg/mL

# Tested on: Staphylococcus aureus
# Assay: Antimicrobial activity against Staphylococcus aureus isolated from infected patient assessed as diameter of growth inhibition zone at 40 ug/ml by disk diffusion method
# Format: functional
# Conditions: read-out: DIZ
row,SMILES,zone of inhibition at 40 µg/mL
1,CCc1ccc(/C=C/C(=O)c2ccsc2)o1,23 mm
2,O=C(/C=C/c1ccc(-c2ccccc2)cc1)c1ccsc1,17 mm
3,Cc1cc(C(=O)/C=C/c2ccc[nH]2)c(C)o1,21 mm
4,COc1ccc(/C=C/C(=O)c2ccsc2)cc1,25 mm
5,COc1ccc(/C=C/C(=O)c2cc(C)oc2C)cc1,21 mm
6,O=C(/C=C/c1c[nH]c2ccccc12)c1ccsc1,19 mm

# Tested on: Goatpox virus
# Assay: Antiviral activity against Goatpox virus infected African green monkey Vero cells assessed as inhibition of viral replication at MNTC dose incubated for 24 hr measured after 6 days
# Format: functional
# Conditions: not given
row,SMILES,inhibition (INH)
1,CCc1ccc(/C=C/C(=O)c2ccsc2)o1,0%
2,O=C(/C=C/c1ccc(-c2ccccc2)cc1)c1ccsc1,0%
3,Cc1cc(C(=O)/C=C/c2ccc[nH]2)c(C)o1,0%
4,COc1ccc(/C=C/C(=O)c2ccsc2)cc1,0%
5,COc1ccc(/C=C/C(=O)c2cc(C)oc2C)cc1,0%
6,O=C(/C=C/c1c[nH]c2ccccc12)c1ccsc1,0%

# Tested on: Vero
# Assay: Cytotoxicity against Chlorocebus aethiops (African green monkey) Vero cells assessed as change in morphological changes after 4 days by inverted microscopic analysis
# Format: cell-based
# Conditions: chlorocebus sabaeus, 96 h
row,SMILES,MNTD
1,CCc1ccc(/C=C/C(=O)c2ccsc2)o1,58.3 µg
2,O=C(/C=C/c1ccc(-c2ccccc2)cc1)c1ccsc1,7.8 µg
3,Cc1cc(C(=O)/C=C/c2ccc[nH]2)c(C)o1,25 µg
4,COc1ccc(/C=C/C(=O)c2ccsc2)cc1,6.24 µg
5,COc1ccc(/C=C/C(=O)c2cc(C)oc2C)cc1,1.3 µg
6,O=C(/C=C/c1c[nH]c2ccccc12)c1ccsc1,1.3 µg

# Tested on: Bacillus subtilis
# Assay: Antimicrobial activity against Bacillus subtilis isolated from infected patient assessed as growth inhibition by disk diffusion method
# Format: functional
# Conditions: not given
row,SMILES,MIC
1,CCc1ccc(/C=C/C(=O)c2ccsc2)o1,20 µg/mL
2,O=C(/C=C/c1ccc(-c2ccccc2)cc1)c1ccsc1,30 µg/mL
3,Cc1cc(C(=O)/C=C/c2ccc[nH]2)c(C)o1,30 µg/mL
4,COc1ccc(/C=C/C(=O)c2ccsc2)cc1,30 µg/mL
5,COc1ccc(/C=C/C(=O)c2cc(C)oc2C)cc1,40 µg/mL
6,O=C(/C=C/c1c[nH]c2ccccc12)c1ccsc1,40 µg/mL

# Tested on: Candida albicans
# Assay: Antimicrobial activity against Candida albicans assessed as diameter of growth inhibition zone at 40 ug/ml by disk diffusion method
# Format: functional
# Conditions: read-out: DIZ
row,SMILES,zone of inhibition at 40 µg/mL
1,CCc1ccc(/C=C/C(=O)c2ccsc2)o1,25 mm
2,O=C(/C=C/c1ccc(-c2ccccc2)cc1)c1ccsc1,30 mm
3,Cc1cc(C(=O)/C=C/c2ccc[nH]2)c(C)o1,17 mm
4,COc1ccc(/C=C/C(=O)c2ccsc2)cc1,25 mm
5,COc1ccc(/C=C/C(=O)c2cc(C)oc2C)cc1,18 mm
6,O=C(/C=C/c1c[nH]c2ccccc12)c1ccsc1,28 mm

# Tested on: Staphylococcus aureus
# Assay: Antimicrobial activity against Staphylococcus aureus isolated from infected patient assessed as growth inhibition by disk diffusion method
# Format: functional
# Conditions: not given
row,SMILES,MIC
1,CCc1ccc(/C=C/C(=O)c2ccsc2)o1,20 µg/mL
2,O=C(/C=C/c1ccc(-c2ccccc2)cc1)c1ccsc1,30 µg/mL
3,Cc1cc(C(=O)/C=C/c2ccc[nH]2)c(C)o1,30 µg/mL
4,COc1ccc(/C=C/C(=O)c2ccsc2)cc1,20 µg/mL
5,COc1ccc(/C=C/C(=O)c2cc(C)oc2C)cc1,40 µg/mL
6,O=C(/C=C/c1c[nH]c2ccccc12)c1ccsc1,30 µg/mL

# Tested on: Candida albicans
# Assay: Antimicrobial activity against Candida albicans assessed as growth inhibition by disk diffusion method
# Format: functional
# Conditions: not given
row,SMILES,MIC
1,CCc1ccc(/C=C/C(=O)c2ccsc2)o1,20 µg/mL
2,O=C(/C=C/c1ccc(-c2ccccc2)cc1)c1ccsc1,30 µg/mL
3,Cc1cc(C(=O)/C=C/c2ccc[nH]2)c(C)o1,30 µg/mL
4,COc1ccc(/C=C/C(=O)c2ccsc2)cc1,30 µg/mL
5,COc1ccc(/C=C/C(=O)c2cc(C)oc2C)cc1,30 µg/mL
6,O=C(/C=C/c1c[nH]c2ccccc12)c1ccsc1,30 µg/mL

# Tested on: Escherichia coli
# Assay: Antimicrobial activity against Escherichia coli isolated from infected patient assessed as growth inhibition by disk diffusion method
# Format: functional
# Conditions: not given
row,SMILES,MIC
1,CCc1ccc(/C=C/C(=O)c2ccsc2)o1,30 µg/mL
2,O=C(/C=C/c1ccc(-c2ccccc2)cc1)c1ccsc1,30 µg/mL
3,Cc1cc(C(=O)/C=C/c2ccc[nH]2)c(C)o1,40 µg/mL
4,COc1ccc(/C=C/C(=O)c2ccsc2)cc1,20 µg/mL
5,COc1ccc(/C=C/C(=O)c2cc(C)oc2C)cc1,30 µg/mL
6,O=C(/C=C/c1c[nH]c2ccccc12)c1ccsc1,30 µg/mL

# Tested on: Buffalopox virus
# Assay: Antiviral activity against Buffalopox virus virus infected African green monkey Vero cells assessed as inhibition of viral replication at MNTC dose incubated for 24 hr measured after 4 days
# Format: functional
# Conditions: not given
row,SMILES,inhibition (INH)
1,CCc1ccc(/C=C/C(=O)c2ccsc2)o1,0%
2,O=C(/C=C/c1ccc(-c2ccccc2)cc1)c1ccsc1,0%
3,Cc1cc(C(=O)/C=C/c2ccc[nH]2)c(C)o1,0%
4,COc1ccc(/C=C/C(=O)c2ccsc2)cc1,0%
5,COc1ccc(/C=C/C(=O)c2cc(C)oc2C)cc1,0%
6,O=C(/C=C/c1c[nH]c2ccccc12)c1ccsc1,0%

# Tested on: Salmonella typhi
# Assay: Antimicrobial activity against Salmonella enterica subsp. enterica serovar Typhi isolated from infected patient assessed as growth inhibition by disk diffusion method
# Format: functional
# Conditions: not given
row,SMILES,MIC
1,CCc1ccc(/C=C/C(=O)c2ccsc2)o1,20 µg/mL
2,O=C(/C=C/c1ccc(-c2ccccc2)cc1)c1ccsc1,30 µg/mL
3,Cc1cc(C(=O)/C=C/c2ccc[nH]2)c(C)o1,40 µg/mL
4,COc1ccc(/C=C/C(=O)c2ccsc2)cc1,40 µg/mL
5,COc1ccc(/C=C/C(=O)c2cc(C)oc2C)cc1,20 µg/mL
6,O=C(/C=C/c1c[nH]c2ccccc12)c1ccsc1,30 µg/mL

# Tested on: Radical scavenging activity
# Assay: Antioxidant activity assessed as DPPH radical scavenging activity at 15 ug/ml after 30 min by spectrophotometric analysis
# Format: functional
# Conditions: not given
row,SMILES,Activity
1,CCc1ccc(/C=C/C(=O)c2ccsc2)o1,31%
2,O=C(/C=C/c1ccc(-c2ccccc2)cc1)c1ccsc1,31%
3,Cc1cc(C(=O)/C=C/c2ccc[nH]2)c(C)o1,31%
4,COc1ccc(/C=C/C(=O)c2ccsc2)cc1,31%
5,COc1ccc(/C=C/C(=O)c2cc(C)oc2C)cc1,64.9%
6,O=C(/C=C/c1c[nH]c2ccccc12)c1ccsc1,31%
